{
  "source": "patent US11452781B2",
  "about": "“Method of preventing and treating type 1 diabetes, allograft rejection and lung fibrosis (by targeting the ATP/P2X7R axis)” (CHILDREN'S MEDICAL CENTER CORPORATION, priority 2013, dated 2022)",
  "key": {"[1]": {"tested_on": "splenocytes of cardiac-transplanted mice", "test": "Immune profiling of cardiac-transplanted mice (ELISPOT with BALB/c irradiated splenocytes, flow cytometry)", "assay_type": "in vivo, mouse", "description": "To evaluate the effect of P2X7R targeting on the immune system of cardiac-transplanted mice, splenocytes were harvested at days 7 and 100 post-transplantation and were challenged with BALB/c irradiated splenocytes in an ELISPOT assay.\nThe effect of P2X7R targeting in preventing cardiac transplant rejection was tested by using the P2X7R inhibitor oATP. Untreated C57BL/6 mice transplanted with BALB/c hearts (fully mismatched) invariably rejected grafts within 7 days (mean survival time of 7 days). P2X7R targeting with the use of the short-term treatment of oATP ([…] oATP intraperitoneally daily for 14 days) induced long-term cardiac transplant survival (>100 days) in 80% of recipients. To evaluate the effect of P2X7R targeting on the immune system of cardiac-transplanted mice, splenocytes were harvested at days 7 and 100 posttransplantation and were challenged with BALB/c irradiated splenocytes in an enzyme-linked immunosorbent spot (ELISPOT) assay. […] The percentages of CD4+ Teffs and CD8+ Teffs were reduced by in vivo short-term P2X7R targeting in mice at days 7 and 100 posttransplantation in comparison with untreated mice.\nmice adoptively transferred with naïve C57BL/6 splenocytes, and no protection was observed when splenocytes obtained from mice with long-term graft function were coadoptively transferred with naïve splenocytes. Conversely, prolonged graft survival >50 days was observed when splenocytes obtained from cardiac-transplanted mice with long-term graft function were adoptively transferred. […] The immunocompetence of treated mice at day 100 after transplantation was tested."}, "naïve Th0 cells": {"tested_on": "naïve Th0 cells", "test": "Th1/Th17 generation and differentiation assay", "assay_type": "cell-based, mouse", "conditions": "100 μM oATP", "description": "Naïve Th0 cells were differentiated into Th1 or Th17 cells, and IFN-γ^+ and IL-17^+ cells were quantified by flow cytometry. Addition of 100 μM oATP inhibited the conversion of naïve Th0 cells into Th1 (FIGS. 6A-6B) and Th17 cells (FIGS. 6C-6D).\nTo address the mechanisms underlying P2X7R targeting mediated inhibition of cardiac transplant rejection, the inventors analyzed the effect of P2X7R targeting on T-cell activation and Th1/Th17 differentiation in vitro. […] The effect of in vitro P2X7R targeting with oATP during CD4+ T-cell activation was tested. […] Second, in a T-cell proliferation assay, carboxyfluorescein diacetate succinimidyl ester-labeled naïve CD4+ T cells were stimulated for 96 hours with 0.5 μg/mL anti-CD3-Ig and anti-CD28-Ig, and treatment with 100 μM oATP diminished CD4+ T cell proliferation in comparison with controls. […] The inventors next tested the effect of in vitro P2X7R targeting during a Th1/Th17 generation and differentiation assay. […] P2X7R targeting with oATP inhibited Th0 conversion into both Th1 and Th17, as assessed by the percentage of IFN-γ+ and IL-17+ cells, respectively. […] In a Th1/Th17 generation assay, pmY-P2X7R CD4+ T cells seemed to display increased differentiation capacity in comparison with pmY-mock CD4+ T cells, as assessed by T-bet and ROR-γ expression."}, "[2]": {"tested_on": "splenocytes of islet-transplanted mice", "test": "Immune profiling of islet-transplanted mice (ELISPOT, flow cytometry, serum cytokines)", "assay_type": "in vivo, mouse", "conditions": "day 14", "description": "The effect of oATP treatment on the immune system of transplanted mice was tested. Splenocytes were collected in untreated or oATP-treated mice at day 14 after transplantation and challenged ex vivo in an ELISPOT assay with BALB/c irradiated splenocytes.\nImmune profiling of islet-transplanted oATP-treated and untreated mice was performed at day 14 after transplantation."}, "[3]": {"tested_on": "P2X7R−/− mice transplanted with BALB/c hearts", "test": "Cardiac transplantation into P2X7R-/- mice", "assay_type": "in vivo, mouse", "conditions": "P2X7R−/− recipients", "from_the_text": "oATP has been proposed to exert secondary immunomodulatory mechanisms, primarily related to the inhibition of the remaining P2XsR. To verify that the effect on the prevention of cardiac transplant rejection was predominantly due to P2X7R inhibition, the P2X7R−/− C57BL/6 mouse model was used. BALB/c hearts were transplanted into P2X7R−/− mice, and cardiac transplant survival was compared with that of wild-type recipients."}, "[4]": {"tested_on": "C57BL/6 mice transplanted with BALB/c islets", "test": "Allogeneic islet transplantation, BALB/c islets into diabetic C57BL/6 mice: graft survival", "assay_type": "in vivo, mouse"}, "[5]": {"test": "Phosphorylation of T-cell signaling molecules in activated CD4+ T cells (Luminex/Milliplex, Western blot)", "assay_type": "cell-based, mouse", "description": "(§1) 60 minutes after anti-CD3-Ig and anti-CD28-Ig mediated activation, cells were lysed and the phosphorylation status of CREB, Erk, Akt, JNK, p38, p70 S6 Kinase, STAT3, and STAT5A/B was assessed using the Millipore Milliplex Cell Signaling Assay. […] Data were confirmed by western blot (FIG. 6D).\n(§2) Several key components of T-cell receptor signaling involved in the alloimmune response were examined, and the phosphorylation kinetics following in vitro anti-CD3-Ig/anti-CD28-Ig-mediated CD4+ T-cell activation was evaluated by using the Luminex assay. […] The inventors first confirmed that Colivelin (Col) was able to restore the activation-induced phosphorylation of STAT3 in a dose-dependent manner in oATP-treated CD4+ T cells by Western blotting. […] The effect of oATP and Colivelin on STAT3 phosphorylation and T-cell function was also evaluated following cardiac transplantation."}, "STAT3": {"tested_on": "STAT3", "test": "Phosphorylation of T-cell signaling molecules in activated CD4+ T cells (Luminex/Milliplex, Western blot)", "assay_type": "cell-based, mouse", "conditions": "60 minutes after activation", "description": "as §1, §2"}, "[6]": {"tested_on": "C57BL/6 mice transplanted with bm12 hearts", "test": "Chronic cardiac transplant rejection, bm12 donors to C57BL/6 recipients", "assay_type": "in vivo, mouse", "description": "To evaluate the importance of P2X7R signaling and targeting in a clinically relevant setting, the effect of oATP treatment in a model of cardiac transplant chronic rejection (bm12 donors to C57BL/6 recipients) was tested. […] Cardiac allograft pathology was assessed 40 days after transplantation of bm12 hearts into C57BL/6 mice."}},
  "note": "Several values for one entry are separate records, joined by “and”; a condition that tells them apart may be missing. Equal values may be shown once. Entries after “also recorded” stand apart in the source; their conditions may differ.",
  "data": [
    {"substance": "periodate-oxidized ATP [oATP]", "values": [
      {"measurement": "percentage of Tregs", "setting": "[1]; day 7", "result": "No differences"},
      {"measurement": "percentage of Tregs", "setting": "[1]; day 100", "result": "an increase"},
      {"measurement": "percentages of CD4+ Teffs and CD8+ Teffs", "setting": "[1]; days 7 and 100 vs untreated", "result": "reduced"},
      {"measurement": "IFN-γ-producing cells after ovalbumin immunization (immunocompetence)", "setting": "[1]; oATP-treated mice at day 100 vs naïve mice", "result": "no differences"},
      {"measurement": "number of IL-4-producing cells (ELISPOT)", "setting": "[1]; oATP-treated vs untreated, day 7", "result": "increased"},
      {"measurement": "number of IFN-γ-producing cells (ELISPOT)", "setting": "[1]; oATP-treated vs untreated, day 7 (and day 100)", "result": "Reduced; also recorded: fewer"},
      {"measurement": "percentage of Th17 cells (CD4+IL17+)", "setting": "[1]; vs untreated, days 7 and 100", "result": "similarly reduced; also recorded: fewer"},
      {"measurement": "conversion of naïve Th0 cells into Th1 (IFN-γ+ cells)", "setting": "naïve Th0 cells", "result": "inhibited"},
      {"measurement": "conversion of naïve Th0 cells into Th17 (IL-17+ cells)", "setting": "naïve Th0 cells", "result": "inhibited"},
      {"measurement": "Th17 cells", "setting": "[2]", "result": "reduced; also recorded: Slight reductions"},
      {"measurement": "number of cells producing IL-4", "setting": "[2]", "result": "no effect"},
      {"measurement": "percentages of CD8+ T effector cells", "setting": "[2]", "result": "Slight reductions"},
      {"measurement": "percentages of peripheral CD4+ T effector cells", "setting": "[2]", "result": "No significant changes"},
      {"measurement": "percentages of regulatory T-cells", "setting": "[2]", "result": "No differences"},
      {"measurement": "serum IL-6", "setting": "[2]", "result": "reduced"},
      {"measurement": "ability to prolong cardiac transplant survival", "setting": "[3]", "result": "severely altered"},
      {"measurement": "islet allograft survival (in words)", "setting": "[4]; mouse, in vivo", "result": "prolongs graft survival"},
      {"measurement": "mice with long-term graft function at 100 days (of n)", "setting": "[4]; mouse, in vivo", "result": "3 out of 10 and 3 of 10"},
      {"measurement": "islet allograft mean survival time (MST)", "setting": "[4]; oATP daily i.p. 14-15 days, rapamycin 0.1 mg/kg 10 days", "result": 22, "unit": "days"},
      {"measurement": "phosphorylation of JNK/SAPK1, p70/S6, or STAT5", "setting": "[5]", "result": "unaffected"},
      {"measurement": "activation-induced STAT3 phosphorylation", "setting": "STAT3", "result": "reduced level; also recorded: prevented phosphorylation of STAT3; also recorded: significant inhibition"},
      {"measurement": "cardiac allograft pathology (infiltration, coronaropathy)", "setting": "[6]; 40 days after transplantation", "result": "only mild cellular infiltration and the absence of coronaropathy"},
      {"measurement": "IFN-γ-producing cells (ELISPOT)", "setting": "[6]; mouse, in vivo", "result": "reduced number"},
      {"measurement": "IL-4-producing cells (ELISPOT)", "setting": "[6]; mouse, in vivo", "result": "increased number"}
    ]}
  ]
}
